System: P12-Ichikawa
Assay: cell viability relative to DMSO control; higher = less cytotoxic
Details: 48 h
Procedure, shortened: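 Cells were incubated for 48 h at 37°C before CellTiter-Glo One luminescence was read. The cells were NOMO1 or SEM (500 cells/well) or P12-Ichikawa (1000 cells/well) leukemia cells, adapted for at least four passages in each medium and seeded in 1536-well plates (5 μl). Dosing used library compounds in DMSO applied by pin over 11 threefold points, 47 μM to 0.79 nM. Viability is the per-plate percentage of DMSO wells, with cell-free wells as background.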

[1] = HPLM + 10% dialyzed FBS, 0.000781 µM
[2] = HPLM + 10% dialyzed FBS, 0.00234 µM
[3] = HPLM + 10% dialyzed FBS, 0.00702 µM
[4] = HPLM + 10% dialyzed FBS, 0.0211 µM
[5] = HPLM + 10% dialyzed FBS, 0.0632 µM
[6] = HPLM + 10% dialyzed FBS, 0.19 µM
[7] = HPLM + 10% dialyzed FBS, 0.569 µM
[8] = HPLM + 10% dialyzed FBS, 1.71 µM
[9] = HPLM + 10% dialyzed FBS, 5.12 µM
[10] = HPLM + 10% dialyzed FBS, 15.4 µM
[11] = HPLM + 10% dialyzed FBS, 46.1 µM
[12] = RPMI 5 mM glucose + 10% FBS, 0.000781 µM
[13] = RPMI 5 mM glucose + 10% FBS, 0.00234 µM
[14] = RPMI 5 mM glucose + 10% FBS, 0.00702 µM
[15] = RPMI 5 mM glucose + 10% FBS, 0.0211 µM
[16] = RPMI 5 mM glucose + 10% FBS, 0.0632 µM
[17] = RPMI 5 mM glucose + 10% FBS, 0.19 µM
[18] = RPMI 5 mM glucose + 10% FBS, 0.569 µM
[19] = RPMI 5 mM glucose + 10% FBS, 1.71 µM
[20] = RPMI 5 mM glucose + 10% FBS, 5.12 µM
[21] = RPMI 5 mM glucose + 10% FBS, 15.4 µM
[22] = RPMI 5 mM glucose + 10% FBS, 46.1 µM
[23] = RPMI 5 mM glucose + 10% dialyzed FBS, 0.000781 µM
[24] = RPMI 5 mM glucose + 10% dialyzed FBS, 0.00234 µM
[25] = RPMI 5 mM glucose + 10% dialyzed FBS, 0.00702 µM
[26] = RPMI 5 mM glucose + 10% dialyzed FBS, 0.0211 µM
[27] = RPMI 5 mM glucose + 10% dialyzed FBS, 0.0632 µM
[28] = RPMI 5 mM glucose + 10% dialyzed FBS, 0.19 µM
[29] = RPMI 5 mM glucose + 10% dialyzed FBS, 0.569 µM
[30] = RPMI 5 mM glucose + 10% dialyzed FBS, 1.71 µM
[31] = RPMI 5 mM glucose + 10% dialyzed FBS, 5.12 µM
[32] = RPMI 5 mM glucose + 10% dialyzed FBS, 15.4 µM
[33] = RPMI 5 mM glucose + 10% dialyzed FBS, 46.1 µM

Row | SMILES | cell viability [1] [%] | cell viability [2] [%] | cell viability [3] [%] | cell viability [4] [%] | cell viability [5] [%] | cell viability [6] [%] | cell viability [7] [%] | cell viability [8] [%] | cell viability [9] [%] | cell viability [10] [%] | cell viability [11] [%] | cell viability [12] [%] | cell viability [13] [%] | cell viability [14] [%] | cell viability [15] [%] | cell viability [16] [%] | cell viability [17] [%] | cell viability [18] [%] | cell viability [19] [%] | cell viability [20] [%] | cell viability [21] [%] | cell viability [22] [%] | cell viability [23] [%] | cell viability [24] [%] | cell viability [25] [%] | cell viability [26] [%] | cell viability [27] [%] | cell viability [28] [%] | cell viability [29] [%] | cell viability [30] [%] | cell viability [31] [%] | cell viability [32] [%] | cell viability [33] [%]
1 | CC[C@H]1OC(=O)[C@H](C)[C@@H](O[C@H]2C[C@@](C)(OC)[C@@H](O)[C@H](C)O2)[C@H](C)[C@@H](O[C@@H]2O[C@@H](C)C[C@H](N(C)C)[C@H]2O)[C@](C)(O)C[C@@H](C)C(=O)[C@H](C)[C@@H](O)[C@]1(C)O | 83.8 | 88.3 | 94.6 | 98.3 | 91.2 | 89.9 | 97.9 | 94.6 | 84 | 57.4 | 18.4 | 84.9 | 87 | 85.6 | 91.3 | 87.6 | 90 | 91.7 | 87.8 | 87.3 | 91.8 | 13.6 | 88.4 | 84.3 | 88.7 | 91.8 | 84.1 | 93.4 | 89.3 | 92.9 | 89.8 | 88.4 | 28
2 | CCC1=C[C@@H]2CN(C1)Cc1c([nH]c3ccccc13)[C@@](C(=O)OC)(c1cc3c(cc1OC)N(C)[C@H]1[C@@](O)(C(=O)OC)[C@H](OC(C)=O)[C@]4(CC)C=CCN5CC[C@]31[C@@H]54)C2 | 106 | 110 | 94.4 | 85.4 | 36.2 | 15.4 | 15.9 | 12.6 | 12.8 | 8.96 | 7.62 | 108 | 108 | 96.6 | 59.8 | 29.6 | 16.2 | 18.3 | 16.5 | 11 | 9.49 | 7.18 | 110 | 100 | 99.7 | 89.4 | 59.2 | 21.7 | 29.3 | 25.4 | 22.4 | 13.9 | 10.6
3 | O=C1Nc2ccccc2/C1=C1\Nc2ccccc2C1=O | 106 | 106 | 109 | 102 | 104 | 101 | 104 | 103 | 94.9 | 104 | 97.9 | 101 | 111 | 103 | 105 | 110 | 108 | 104 | 104 | 95.9 | 99.7 | 98 | 99.3 | 102 | 105 | 91.2 | 104 | 97.1 | 106 | 94.9 | 93.1 | 102 | 83.4
4 | CC/1=C/N([C@@H]2C[C@@H](O)[C@H](CO)O2)C(=O)NC1=O | 93.7 | 89.4 | 96.2 | 85.5 | 78.7 | 83.4 | 91.7 | 86.1 | 73.7 | 74.2 | 8.14 | 75.2 | 86.7 | 83.5 | 85.8 | 65.9 | 80.7 | 90.2 | 76 | 62.3 | 69.5 | 6.95 | 76.3 | 84.6 | 79.8 | 75.9 | 61.6 | 73.3 | 81.8 | 81 | 61 | 64.3 | 12.2
5 | COCCOC(=O)C/1=C(C)/NC/2=C(C1C3=CC=CC(=C3)O)/C(=O)CC(C2)C4=C(OC)C=CC=C4 (stereo unspecified) | 94.3 | 97.9 | 102 | 105 | 110 | 100 | 106 | 105 | 91.5 | 86.7 | 26.8 | 103 | 102 | 104 | 112 | 118 | 110 | 113 | 101 | 96.3 | 89.5 | 54.1 | 94.8 | 97.9 | 91.7 | 104 | 101 | 104 | 101 | 94.7 | 87.6 | 88.1 | 46.8
6 | C#CCN(C)[C@H](C)Cc1ccccc1 | 92.5 | 93.5 | 93.7 | 89.8 | 106 | 93 | 73.2 | 89.5 | 92.7 | 80.1 | 88.3 | 82.9 | 82.3 | 88.9 | 83.7 | 92.2 | 92.7 | 89.3 | 82.8 | 81.5 | 87.9 | 89 | 79.3 | 88.6 | 83.1 | 86.5 | 83.8 | 88.3 | 93.5 | 82 | 80.9 | 80.2 | 79.5
7 | CN1C(=O)\C(=C/C(=C1/NC2=C(F)C=C(I)C=C2)C(=O)NOCCO)C | 94.6 | 99.5 | 103 | 93.4 | 90.4 | 90.1 | 94.5 | 88.9 | 94.5 | 87.7 | 78.1 | 98.2 | 104 | 98.9 | 90.7 | 88.8 | 85.3 | 85.5 | 84.7 | 85.7 | 87.1 | 81.1 | 94.6 | 105 | 96.2 | 99.6 | 92.3 | 90.7 | 95.8 | 90.9 | 101 | 91 | 74.9
